For three molecules, IC50 results are on record in article PMC4631641 (The Journal of nutritional biochemistry, 2015).

The target in the assay is T1, holocarboxylase synthetase (HLCS) (Homo sapiens, UniProt P50747).
T1 sequence (P50747 1-726): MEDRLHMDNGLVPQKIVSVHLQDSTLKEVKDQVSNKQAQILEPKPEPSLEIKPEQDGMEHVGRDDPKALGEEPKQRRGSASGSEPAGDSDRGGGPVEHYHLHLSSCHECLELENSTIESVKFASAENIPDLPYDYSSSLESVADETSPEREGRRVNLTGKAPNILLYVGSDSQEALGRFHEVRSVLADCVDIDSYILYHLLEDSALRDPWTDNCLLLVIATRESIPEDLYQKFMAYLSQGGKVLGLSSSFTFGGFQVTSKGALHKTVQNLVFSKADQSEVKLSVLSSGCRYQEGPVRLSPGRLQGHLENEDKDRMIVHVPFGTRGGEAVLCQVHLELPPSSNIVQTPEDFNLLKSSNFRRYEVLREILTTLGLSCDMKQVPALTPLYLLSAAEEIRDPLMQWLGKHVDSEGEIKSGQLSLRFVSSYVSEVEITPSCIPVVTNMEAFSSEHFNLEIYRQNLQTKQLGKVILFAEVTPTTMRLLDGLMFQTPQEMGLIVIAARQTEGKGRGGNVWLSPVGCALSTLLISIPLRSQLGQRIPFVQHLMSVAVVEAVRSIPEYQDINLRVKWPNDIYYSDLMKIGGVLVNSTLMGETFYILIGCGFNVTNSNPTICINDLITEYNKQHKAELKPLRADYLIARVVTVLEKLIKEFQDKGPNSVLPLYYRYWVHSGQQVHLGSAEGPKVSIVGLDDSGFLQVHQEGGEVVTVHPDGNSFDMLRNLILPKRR
The assay can be described thus: gel-based p67 biotinylation assay with purified rHLCS, dose-response. In kind it is biochemical.

The term IC50 denotes the concentration that inhibits the measured activity by half. Low values mean higher potency, high ones lower potency. With `Oc1cc(O)cc(/C=C/c2ccc(O)c(O)c2)c1` [Piceatannol], inhibition was half-maximal at 0.28 µM (IC50). Molecule `OC[C@H]1O[C@@H](Oc2cc(O)cc(/C=C/c3ccc(O)cc3)c2)[C@H](O)[C@@H](O)[C@@H]1O` [Piceid] came in with a concentration for half-maximal inhibition (IC50) of 21.3 ± 0.014 µM.

In turn, `Oc1ccc(/C=C/c2cc(O)cc(O)c2)cc1` [Resveratrol] returned an IC50 of 3.7 ± 0.0085 µM.
